The structures appear in SMILES notation. Counter-ions that a name gives are not always drawn.

The results in this text go back to patent publication US20040198756A1, “Medicaments” (priority 2001, published 2004).

The assay has as its system S. aureus WCUH29, S. pneumoniae 1629, H. influenzae ATCC 51907, M. catarrhalis Ravisio. Nature of the assay: MIC of further test compounds against an alternative selection of organisms. In kind it is cell-based. The note with it: read-out: MIC values versus some of these organisms. The protocol: The MIC (μg/ml) of further test compounds against an alternative selection of organisms was determined:
S. aureus WCUH29, S. pneumoniae 1629, H. influenzae ATCC 51907, M. catarrhalis Ravisio.

As to `COc1ccc2nccc(NC(=O)C3(C(F)(F)F)CCN(CCc4cc5c(nn4)SCC(=O)N5)CC3)c2n1` [Example 24, 1-[2-(6-Oxo-6,7-dihydro-5H-8-thia-1,2,5-triazanaphthalen-3-yl)ethyl]-4-trifluoromethylpiperidine-4-carboxylic acid (6-methoxy-[1,5]naphthyridin-4-yl) amide dihydrochloride], the MIC is not above 16 µg/mL.
